Measured values from patent US20060173015A1, “Cyclohexyldiamines as selective alpha 1a/1d adrenoreceptor antagonists for the treatment of benign prostatic hypertrophy and lower urinary tract symptoms” (priority 2004, published 2006).
pKi: −log10 of the molar value.

Columns and labels:
[1] = test system: Mean Arterial Pressure (MAP); experiment: Phenylephrine-induced MAP in an anesthetized canine model; format: in vivo; conditions: anesthetized dog
Description: In-Vivo Evaluation of α1-Adrenergic Antagonists on Prostatic Intraurethral Pressure (IUP) and Mean Arterial Pressure (MAP) in an Anesthetized Canine Model
An anesthetized dog was fitted with a balloon catheter for the measurement of changes in prostatic IUP and with a non-invasive blood pressure (NIBP) cuff for determination of MAP.
The pressor effects of challenge doses (i.v.) of the α-adrenergic agonist phenylephrine upon IUP and MAP were measured before and at various time points after a single dose (i.v.) of an α-adrenergic antagonist test compound (Compound 69) of the present invention.
Each treatment group was dosed with a test compound (0.01, 0.03, 0.1 and 0.5 mg/kg) in four separate experiments. The first challenge dose of phenylephrine was administered 30 mins prior to the test compound dose and at 30 min intervals thereafter for a total time period of 5 hrs (i.e at time minus 30 mins, time plus 30 mins, 1 hr, 1.5 hrs, 2 hrs, 2.5 hrs, 3 hrs, 3.5 hrs, 4 hrs, 4.5 hrs and 5 hrs).
The animals were fasted overnight, anesthetized with propofol (4 mg/kg IV or to effect), then intubated and anesthesia maintained using inhalation isoflurane (1-2% in oxygen at a flow rate of 2 l/min) with animals breathing spontaneously.
Blood pressure was measured non-invasively using a Critikon 8100 monitor. An infant blood pressure cuff was placed on a forelimb. Measurements were made automatically at 1-minute intervals during recording periods. […] Care was taken to accurately correlate the time of the MAP readings with the time of the phenylephrine dose. Recording periods typically lasted from 5 minutes before phenylephrine administration to 10 minutes after. The monitor was turned off between recording periods to allow the arterial blood vessels of the forelimb to recover from repeated cuff inflations.
Because of the variability of the MAP value, several values recorded during a five minute “control” period prior to the phenylephrine challenge dose were averaged to establish a mean baseline value for measuring the phenylephrine-induced change in MAP.
MAP readings also varied during the response to the phenylephrine challenge. A visual peak MAP value, seen on the monitor at about 3 minutes after the challenge dose, was recorded and used to calculate the maximum phenylephrine induced change in MAP. Additionally, MAP values were recorded at one minute intervals and curve fitted to estimate a maximum MAP value. The curve fitted maximum value was used to confirm the visual maximum value.
A test compound was administered via the cephalic vein using an appropriately sized IV catheter (Surflo, Terumo Medical Corporation or equivalent).
Prior to test compound administration, IUP and MAP responses to an individualized dose of phenylephrine (either 10 or 15 μg/kg IV, depending on the individual animal's response) was repeated 2 to 3 times to establish a baseline response. After test compound administration, the individualized phenylephrine dose was administered to each animal at 30 minute intervals over a period of 5 hours.
Data for phenylephrine-induced changes in IUP and MAP were tabulated for each treatment group and each experiment. A mean value and standard deviation for the phenylephrine-induced changes to the effect of a test compound on IUP and MAP at each dose was calculated and tabulated for each treatment group over the length of the 5.5 hour study.

α1b-AR = biological target: T1, α1b-AR (Homo sapiens, UniProt P35368); experiment: α1-Adrenergic receptor radio-ligand (125I-HEAT) binding assay, α1b subtype; conditions: Receptor Binding, Ki α1b-AR, COS-7 cell membranes, 125I-HEAT
T1 sequence (P35368 1-520): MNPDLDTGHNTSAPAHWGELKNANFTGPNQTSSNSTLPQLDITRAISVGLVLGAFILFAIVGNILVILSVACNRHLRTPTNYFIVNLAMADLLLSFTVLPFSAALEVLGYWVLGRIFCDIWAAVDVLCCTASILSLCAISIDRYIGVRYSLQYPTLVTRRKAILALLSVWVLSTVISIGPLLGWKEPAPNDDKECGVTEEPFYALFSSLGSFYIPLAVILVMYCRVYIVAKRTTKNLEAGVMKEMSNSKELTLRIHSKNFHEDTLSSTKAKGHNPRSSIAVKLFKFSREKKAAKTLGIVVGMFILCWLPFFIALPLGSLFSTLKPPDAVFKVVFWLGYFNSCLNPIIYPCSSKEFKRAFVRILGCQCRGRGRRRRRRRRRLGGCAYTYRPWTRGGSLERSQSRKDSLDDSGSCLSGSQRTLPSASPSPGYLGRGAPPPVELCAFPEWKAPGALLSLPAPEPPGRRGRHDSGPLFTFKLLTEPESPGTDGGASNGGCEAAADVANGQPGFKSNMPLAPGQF

COc1ccc(S(=O)(=O)N[C@H]2CC[C@@H](N3CCN(c4ccccc4OCC(F)(F)F)CC3)CC2)cc1OC [Cpd 69, 3,4-Dimethoxy-N-cis-(4-{4-[2-(2,2,2-trifluoro-ethoxy)-phenyl]-piperazin-1-yl}-cyclohexyl)-benzenesulfonamide]
MAP, normalized % of baseline (mean) ([1]; 0.01 mg/kg i.v., 0 hrs (baseline)): 100% | MAP, normalized % of baseline (mean) ([1]; 0.01 mg/kg i.v., 0.5 hrs after dose): 88.2% | MAP, normalized % of baseline (mean) ([1]; 0.01 mg/kg i.v., 1 hrs after dose): 68.9% | MAP, normalized % of baseline (mean) ([1]; 0.01 mg/kg i.v., 2 hrs after dose): 83.1% | MAP, normalized % of baseline (mean) ([1]; 0.01 mg/kg i.v., 3 hrs after dose): 88.0% | MAP, normalized % of baseline (mean) ([1]; 0.01 mg/kg i.v., 4 hrs after dose): 82.0% | MAP, normalized % of baseline (mean) ([1]; 0.01 mg/kg i.v., 5 hrs after dose): 91.1% | MAP, normalized % of baseline (mean) ([1]; 0.03 mg/kg i.v., 0 hrs (baseline)): 100% | MAP, normalized % of baseline (mean) ([1]; 0.03 mg/kg i.v., 0.5 hrs after dose): 39.9% | MAP, normalized % of baseline (mean) ([1]; 0.03 mg/kg i.v., 1 hrs after dose): 40.9% | MAP, normalized % of baseline (mean) ([1]; 0.03 mg/kg i.v., 1.5 hrs after dose): 44.1% | MAP, normalized % of baseline (mean) ([1]; 0.03 mg/kg i.v., 2 hrs after dose): 61.0% | MAP, normalized % of baseline (mean) ([1]; 0.03 mg/kg i.v., 2.5 hrs after dose): 59.4% | MAP, normalized % of baseline (mean) ([1]; 0.03 mg/kg i.v., 3 hrs after dose): 59.2% | MAP, normalized % of baseline (mean) ([1]; 0.03 mg/kg i.v., 3.5 hrs after dose): 59.8% | MAP, normalized % of baseline (mean) ([1]; 0.03 mg/kg i.v., 4 hrs after dose): 58.4% | MAP, normalized % of baseline (mean) ([1]; 0.03 mg/kg i.v., 4.5 hrs after dose): 71.1% | MAP, normalized % of baseline (mean) ([1]; 0.03 mg/kg i.v., 5 hrs after dose): 90.3% | MAP, normalized % of baseline (mean) ([1]; 0.1 mg/kg i.v., 0 hrs (baseline)): 100% | MAP, normalized % of baseline (mean) ([1]; 0.1 mg/kg i.v., 0.5 hrs after dose): 45.5% | MAP, normalized % of baseline (mean) ([1]; 0.1 mg/kg i.v., 1 hrs after dose): 47.4% | MAP, normalized % of baseline (mean) ([1]; 0.1 mg/kg i.v., 1.5 hrs after dose): 35.0% | MAP, normalized % of baseline (mean) ([1]; 0.1 mg/kg i.v., 2 hrs after dose): 44.0% | MAP, normalized % of baseline (mean) ([1]; 0.1 mg/kg i.v., 2.5 hrs after dose): 54.0% | MAP, normalized % of baseline (mean) ([1]; 0.1 mg/kg i.v., 3 hrs after dose): 51.3% | MAP, normalized % of baseline (mean) ([1]; 0.1 mg/kg i.v., 3.5 hrs after dose): 56.4% | MAP, normalized % of baseline (mean) ([1]; 0.1 mg/kg i.v., 4 hrs after dose): 47.0% | MAP, normalized % of baseline (mean) ([1]; 0.1 mg/kg i.v., 4.5 hrs after dose): 73.3% | MAP, normalized % of baseline (mean) ([1]; 0.1 mg/kg i.v., 5 hrs after dose): 84.3% | MAP, normalized % of baseline (mean) ([1]; 0.5 mg/kg i.v., 0 hrs (baseline)): 100% | MAP, normalized % of baseline (mean) ([1]; 0.5 mg/kg i.v., 0.5 hrs after dose): 27.6% | MAP, normalized % of baseline (mean) ([1]; 0.5 mg/kg i.v., 1 hrs after dose): 18.4% | MAP, normalized % of baseline (mean) ([1]; 0.5 mg/kg i.v., 1.5 hrs after dose): 16.0% | MAP, normalized % of baseline (mean) ([1]; 0.5 mg/kg i.v., 2 hrs after dose): 18.3% | MAP, normalized % of baseline (mean) ([1]; 0.5 mg/kg i.v., 2.5 hrs after dose): 19.4% | MAP, normalized % of baseline (mean) ([1]; 0.5 mg/kg i.v., 3 hrs after dose): 23.8% | MAP, normalized % of baseline (mean) ([1]; 0.5 mg/kg i.v., 3.5 hrs after dose): 19.2% | MAP, normalized % of baseline (mean) ([1]; 0.5 mg/kg i.v., 4 hrs after dose): 32.3% | MAP, normalized % of baseline (mean) ([1]; 0.5 mg/kg i.v., 4.5 hrs after dose): 32.1% | MAP, normalized % of baseline (mean) ([1]; 0.5 mg/kg i.v., 5 hrs after dose): 29.4% | pKi (α1b-AR): 7.00
